Results: paper PMC7696940, “Effects of Rationally Designed Physico-Chemical Variants of the Peptide PuroA on Biocidal Activity towards Bacterial and Mammalian Cells” (International Journal of Molecular Sciences, 2020)
≈ marks a conversion by molar mass, not a printed value. Where no end group is shown, it is not given here.

Columns and labels:
C. albicans FRR 5580 = type: cell-based, Candida albicans; settings: PDB, overnight; mode of three independent experiments
Experimental: The assay was carried out as per Alfred et al.. Candida albicans (FRR 5580) was grown in potato dextrose broth (PDB; Difco-BD, Bergen County, NJ, USA) overnight at 30 °C with shaking (200 rpm) until exponential phase, then adjusted to 0.5 McFarland turbidity standard (approximately 1 × 10^6 cells/mL) and diluted 1:200 with PDB to 0.5 − 2 × 10^3 cells/mL. Peptides in 25 μL volumes were mixed with 75 μL of the yeast suspensions. The controls were included as above. The plates were incubated overnight and absorbance was recorded. All the tests were conducted in triplicate.

MRSA M173525 biofilm = experiment: Inhibition of preformed 6 h biofilm (CV and MTT assays); type: cell-based, methicillin-resistant Staphylococcus aureus; settings: 37 °C, triplicate
Experimental: The effects of PuroA and other selected peptides (based on their antibacterial activity) on both the initial cell attachment and 6 h preformed biofilms of MRSA on polystyrene were tested as described by Jadhav et al., at their respective 0.5 × MIC, 1 × MIC, and 2 × MIC concentrations. All tests were conducted in triplicate. For testing the inhibition of initial cell attachment, 100 μL of peptide solutions were added to the microtitre plates, then mixed with 100 μL of M173525 cell suspension (1 × 10^6 CFU/mL, cultured in tryptic soy broth medium (TSB; Oxoid) containing 1% glucose), or 100 μL of sterile MilliQ water as negative control. The plates were incubated at 37 °C for 24 h to allow cell attachment. The biofilm formation was then assessed using CV and MTT assays. […] Peptide solutions (100 μL) were then added, the plates incubated at 37 °C for 1 h and the biofilms assessed.
The assay works as an indicator of attached living and non-living biomass. Indirect assessment of cell attachment of MRSA was estimated using the modified CV assay as per Jadhav et al.. After incubations of the plates (for 24 h or 1 h, as above), the culture medium from each well was removed gently and any non-adherent bacteria removed by washing the plates five times with sterile distilled water (dH2O). The plates were air-dried, then oven-dried at 60 °C for 1 h. The biofilm cells in the wells were stained with 100 μL of 1% CV and incubated for 15 min at room temperature. Excess stain was removed by washing the plates three times with sterile dH2O. Ethanol (95%, 125 µL) was transferred to each well to de-stain the cells. The de-staining solution from each well was then transferred to a new plate and its absorbance measured at 595 nm. The percentage inhibition of biomass formation concentration was calculated as: ((OD595 nm control well without peptide − OD5 95 well with peptide)/OD595 nm control well without peptide) × 100. All tests were conducted in triplicate.
A modified methylthiazotetrazolium (MTT) (3-[4,5-dimethyl thiazol-2-yl]-2, 5-diphenyltetrazolium bromide) reduction assay was used, wherein the blue product (MTT salt reduced to formazan by dehydrogenases) is taken as a respiratory indicator of live cells. Briefly, MTT (Sigma-Aldrich, Gillingham, UK) was dissolved in PBS to 5 mg/mL. After incubations of plates (for 24 h or 1 h, as above), the culture medium was gently removed and the plates air-dried. PBS (100 μL) and MTT (5 µL, 5 mg/mL) were added to each well and the plates incubated for 3 h at 37 °C. The insoluble purple product was dissolved in 100 µL of dimethyl sulphoxide (DMSO, Sigma-Aldrich, Gillingham, UK) and the absorbance measured at 570 nm. The % inhibition of metabolic activity was calculated as: ((OD570 nm control well without peptide − OD570 nm well with peptide)/OD570 nm control well without peptide) × 100. All tests were conducted in triplicate.

NIH-3T3 cells = experiment: Cytotoxicity, MTT assay; type: cell-based, mouse; settings: 24 h; for IC50 NIH-3T3: peptide up to 250 µg/mL, concentration causing 50% cell growth inhibition, mean of triplicate assays
Experimental: Cytotoxicity to human cervical carcinoma HeLa cells and mouse fibroblastic NIH-3T3 cells was determined using the MTT assay as per Scudiero et al. with minor modifications. The cells were maintained in Dulbecco’s Modified Eagle Medium (DMEM) with 10% foetal bovine serum (FBS) and 1% penicillin G in a humidified incubator (Heraeus Hera Cell incubator) at 37 °C with 5% CO2. They were seeded in 96-well microtiter plates at 1 × 10^4 cells/well and allowed to adhere for 24 h in the incubator. The medium was removed, and adherent cells were washed with PBS. Fresh media containing serially diluted peptides in PBS (final concentrations 4 to 250 µg/mL) were added and the cells incubated for 24 h. Cells without peptides were used as negative controls. Following incubations, the medium was removed, and adherent cells were washed with PBS. 150 µL of MTT (diluted to 0.33 mg/mL in DMEM) and the plates incubated for 3 h. The precipitated formazan was dissolved in 100 µL of DMSO and its absorbance measured at 570 nm. Cell viability was determined as: (OD570 nm peptide treated cells/(OD570 nm untreated cells) × 100. Positive cytotoxicity was defined as peptide concentration that causes 50% growth inhibition in a cell line (IC50). All tests were carried out in triplicate.

Compound	MIC C. albicans FRR 5580 (C. albicans FRR 5580) [µg/mL]	% Inhibition of Preformed 6 h MRSA Biofilm after 1 h Incubation, CV (MRSA M173525 biofilm; 0.5 × MIC) [%]	% Inhibition of Preformed 6 h MRSA Biofilm after 1 h Incubation, MTT (MRSA M173525 biofilm; 0.5 × MIC) [%]	% Inhibition of Preformed 6 h MRSA Biofilm after 1 h Incubation, CV (MRSA M173525 biofilm; 1 × MIC) [%]	% Inhibition of Preformed 6 h MRSA Biofilm after 1 h Incubation, MTT (MRSA M173525 biofilm; 1 × MIC) [%]	% Inhibition of Preformed 6 h MRSA Biofilm after 1 h Incubation, CV (MRSA M173525 biofilm; 2 × MIC) [%]	% Inhibition of Preformed 6 h MRSA Biofilm after 1 h Incubation, MTT (MRSA M173525 biofilm; 2 × MIC) [%]	IC50 NIH-3T3 (NIH-3T3 cells) [µg/mL]	Cytotoxicity to NIH-3T3 mouse fibroblasts (in words) (NIH-3T3 cells; up to 250 µg/mL)
CC(C)[C@H](NC(=O)[C@@H]1CCCN1C(=O)[C@@H](N)Cc1ccccc1)C(=O)N[C@H](C(=O)N[C@@H](Cc1c[nH]c2ccccc12)C(=O)N[C@@H](CCCNC(=N)N)C(=O)N[C@@H](Cc1c[nH]c2ccccc12)C(=O)N[C@@H](Cc1c[nH]c2ccccc12)C(=O)N[C@@H](CCCCN)C(=O)N[C@@H](Cc1c[nH]c2ccccc12)C(=O)N[C@@H](Cc1c[nH]c2ccccc12)C(=O)N[C@@H](CCCCN)C(=O)NCC(N)=O)[C@@H](C)O [PuroA]	125 (≈ 67.1 µM)	68 ± 9.2	90 ± 2.5	75 ± 7.5	92 ± 4.0	77 ± 7.0	95 ± 2.6	250 (≈ 134 µM)	
RKRWWRWWKWWKR-NH2 [Peptide P1]	64	70 ± 6.9	93 ± 5.0	74 ± 5.8	95 ± 3.8	78 ± 3.1	95 ± 4.0	250	
WRWWKWW-NH2 [Peptide W7]	64	67 ± 6.0	88 ± 2.5	75.5 ± 3.0	90 ± 4.7	75 ± 5.5	94 ± 0.5	250	
WWRWWKWW-NH2 [WW]	64	69 ± 7.8	91 ± 3.0	71 ± 4.5	92 ± 3.5	74 ± 2.0	95 ± 1.7	>250	no cytotoxicity
